This note sets out measurements from patent US20230040247A1, “COMPOUNDS FOR TREATING NEURODEGENERATIVE DISEASES” (Amabiotics, priority 2019, published 2023).

The test has as its system endogenous a-synuclein phosphorylation at serine 129. Put plainly: huPFFs-induced endogenous a-synuclein phosphorylation at serine 129 in primary cortical cultures (EP1536Y immunofluorescence). It is filed as cell-based, mouse. The method, then:
The study was designed to evaluate the effects of queuine in an in vitro cell-based experimental model of synucleinopathy. The study aimed to evaluate the impact of queuine on the experimental synucleinopathy, in particular of the Lewy body type, induced by exogenous human preformed a-synuclein fibrils (huPFFs) in cortical cultures of wild-type (WT) mice (Volpicelli-Daley et al. (2011) Neuron. 72:57-7).
Queuine was evaluated for its capability to afford protection against the induction of endogenous a-synuclein phosphorylation at serine 129 (a surrogate marker of de novo a-synuclein aggregation) triggered by exposure to exogenous human recombinant (unphosphorylated) a-synuclein preformed fibrils (huPFFs).
Primary cultures of dissociated cortices from embryonic day E18 WT mouse embryos were used as the biological system. Timed pregnant female mice were received from Charles River Laboratories 2 days before initiation of the primary culture. […] At 30 DIV, the neuronal cultures were fixed with PFA, and the effects of the treatments were evaluated by performing two double immunostainings: • (i) D37A6/Syn1 to detect total rodent a-synuclein/human plus rodent non aggregated a-synuclein; • (ii) EP1536Y/Syn211 to detect rodent and human a-synuclein phosphorylated at S129/total human a-synuclein.
The induction of a-synuclein phosphorylation was quantified by measuring the accumulation of phospho-a-synuclein (length of the phospho-a-synuclein-positive neurite network, number of phospho-a-synuclein positive cell bodies).
The experimental conditions were performed in quadruplicate (for compound-treated conditions+/−huPFFs) and triplicate (for controls+/−huPFFs) wells. An array of nine individual microscopic fields were acquired in each single well, and 3 channels were recorded for each field (green fluorescence excited @488 nm, red fluorescence excited @594 nm, and phase contrast). […]
To further evaluate the effects of queuine, the EP1536Y signal was segmented to quantify the phospho-a-synuclein positive neurites. […]

On to “7-(3,4-trans-4,5-cis-dihydroxy-1-cyclopenten-3-ylaminomethyl)-7-deazaguanine [queuine]”, for which, where the note is “WT mouse cortical neurones without huPFFs, concentration range tested (10 μM, 1 μM, 0.1 μM)”, the “effect on untreated neurones (induction of synuclein phosphorylation at S129)” value is reported as “no effect”. Also, the “EP1536Y immunofluorescence signal, representative of the phosphorylation of a-synuclein” value (WT mouse cortical neurons exposed to 10 nM huPFFs, queuine pretreatment at 100 nM compared to control (FIG. 1)) is “decreased”. Further, under “huPFFs-treated (10 nM) WT mouse cortical neurones, all doses tested (10 μM, 1 μM, 0.1 μM), normalised to huPFFs condition (FIG. 2), significant”, the “decrease of a-synuclein phosphorylation at S129 induced by huPFFs” value was “approx. −50%”.
